Test system: T-47D spheroids with HUVEC/MSC, viability
Assay: Anticancer human tumor T-47D cell line growth inhibition [PI3K];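 also: spheroids exposed to agents for seven days before reading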;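 as to viability, T/C: percent of DMSO vehicle control luminescence so 100% = untreated growth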
Conditions: for IC50: curve of first compound; for viability, T/C: stronger effect = lower value
Method in brief: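 We assembled tumor spheroids that included a stromal compartment of HUVEC and MSCs, then exposed them to targeted agents alone and together with PI3K pathway inhibitors. Concentration series descended by half-log from clinically achievable Cmax levels. Viability served as the endpoint.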

[1] = second compound 0.00316 µM, first compound 0.0316 µM
[2] = second compound 0.00316 µM, first compound 0.1 µM
[3] = second compound 0.00316 µM, first compound 0.316 µM
[4] = second compound 0.00316 µM, first compound 1 µM
[5] = second compound 0.00316 µM, first compound 3.16 µM
[6] = second compound 0.00316 µM, first compound 10 µM
[7] = second compound 0.01 µM, first compound 0.0316 µM
[8] = second compound 0.01 µM, first compound 0.1 µM
[9] = second compound 0.01 µM, first compound 0.316 µM
[10] = second compound 0.01 µM, first compound 1 µM
[11] = second compound 0.01 µM, first compound 3.16 µM
[12] = second compound 0.01 µM, first compound 10 µM
[13] = second compound 0.0316 µM, first compound 0.0316 µM
[14] = second compound 0.0316 µM, first compound 0.1 µM
[15] = second compound 0.0316 µM, first compound 0.316 µM
[16] = second compound 0.0316 µM, first compound 1 µM
[17] = second compound 0.0316 µM, first compound 3.16 µM
[18] = second compound 0.0316 µM, first compound 10 µM
[19] = second compound 0.1 µM, first compound 0.0316 µM
[20] = second compound 0.1 µM, first compound 0.1 µM
[21] = second compound 0.1 µM, first compound 0.316 µM
[22] = second compound 0.1 µM, first compound 1 µM
[23] = second compound 0.1 µM, first compound 3.16 µM
[24] = second compound 0.1 µM, first compound 10 µM
[25] = second compound 0.316 µM, first compound 0.0316 µM
[26] = second compound 0.316 µM, first compound 0.1 µM
[27] = second compound 0.316 µM, first compound 0.316 µM
[28] = second compound 0.316 µM, first compound 1 µM
[29] = second compound 0.316 µM, first compound 3.16 µM
[30] = second compound 0.316 µM, first compound 10 µM
[31] = second compound 1 µM, first compound 0.0316 µM
[32] = second compound 1 µM, first compound 0.1 µM
[33] = second compound 1 µM, first compound 0.316 µM
[34] = second compound 1 µM, first compound 1 µM
[35] = second compound 1 µM, first compound 3.16 µM
[36] = second compound 1 µM, first compound 10 µM

`CNC(=O)c1ccc(N2C(=S)N(c3ccc(C#N)c(C(F)(F)F)c3)C(=O)C2(C)C)cc1F` + CC(Nc1ccc2c(c1)OCCn1cc(N3C(=O)OCC3C(F)F)nc1-2)C(N)=O was tested, and the IC50 (second compound 0.00316 µM) was > 10 µM, the IC50 (second compound 0.01 µM) was > 10 µM and the IC50 (second compound 0.0316 µM) was > 10 µM. For the same molecule, the IC50 (second compound 0.1 µM) was > 10 µM, the IC50 (second compound 0.316 µM) was > 10 µM and the IC50 (second compound 1 µM) was > 10 µM. It also gave a viability, T/C [1] of 120%, a viability, T/C [2] of 98.2% and a viability, T/C [3] of 104%. The viability, T/C [4] was 81.5%, the viability, T/C [5] was 104% and the viability, T/C [6] was 88.3%. For the same molecule, the viability, T/C [7] was 105%, the viability, T/C [8] was 91.5% and the viability, T/C [9] was 88.2%. For the same molecule, the viability, T/C [10] was 82.3%, the viability, T/C [11] was 91.2% and the viability, T/C [12] was 95.5%. The viability, T/C [13] was 103%, the viability, T/C [14] was 95% and the viability, T/C [15] was 87.1%. It also gave a viability, T/C [16] of 77.2%, a viability, T/C [17] of 91.2% and a viability, T/C [18] of 90.9%. For the same molecule, the viability, T/C [19] was 94.7%, the viability, T/C [20] was 82.2% and the viability, T/C [21] was 99.7%. It also gave a viability, T/C [22] of 86.7%, a viability, T/C [23] of 90.2% and a viability, T/C [24] of 72.5%. For the same molecule, the viability, T/C [25] was 71.9%, the viability, T/C [26] was 79% and the viability, T/C [27] was 75.2%. For the same molecule, the viability, T/C [28] was 71%, the viability, T/C [29] was 64.3% and the viability, T/C [30] was 60.6%. The viability, T/C [31] was 61%, the viability, T/C [32] was 68% and the viability, T/C [33] was 58.8%. It also gave a viability, T/C [34] of 60.4%, a viability, T/C [35] of 56.2% and a viability, T/C [36] of 48.8%.
With `C=CC(=O)N1CCN(c2nc(=O)n(-c3c(C)ccnc3C(C)C)c3nc(-c4c(O)cccc4F)c(F)cc23)C(C)C1` (centres undefined) + COc1c(OCCCN2CCOCC2)ccc2c3n(c(=NC(=O)c4cnc(N)nc4)nc12)CCN3 the IC50 (second compound 0.00316 µM) was > 10 µM, the IC50 (second compound 0.01 µM) was > 10 µM and the IC50 (second compound 0.0316 µM) was > 10 µM. For the same molecule, the IC50 (second compound 0.1 µM) was < 0.0316 µM, the IC50 (second compound 0.316 µM) was < 0.0316 µM and the IC50 (second compound 1 µM) was < 0.0316 µM. For the same molecule, the viability, T/C [1] was 100%, the viability, T/C [2] was 124% and the viability, T/C [3] was 106%. It also gave a viability, T/C [4] of 108%, a viability, T/C [5] of 101% and a viability, T/C [6] of 113%. The viability, T/C [7] was 101%, the viability, T/C [8] was 91.6% and the viability, T/C [9] was 96.1%. The viability, T/C [10] was 91%, the viability, T/C [11] was 138% and the viability, T/C [12] was 104%. For the same molecule, the viability, T/C [13] was 84.5%, the viability, T/C [14] was 67.6% and the viability, T/C [15] was 74.6%. For the same molecule, the viability, T/C [16] was 109%, the viability, T/C [17] was 95.6% and the viability, T/C [18] was 90.6%. For the same molecule, the viability, T/C [19] was 46.2%, the viability, T/C [20] was 51% and the viability, T/C [21] was 41.1%. For the same molecule, the viability, T/C [22] was 45.1%, the viability, T/C [23] was 48.3% and the viability, T/C [24] was 53.1%. It also gave a viability, T/C [25] of 21.3%, a viability, T/C [26] of 18.4% and a viability, T/C [27] of 18.2%. It also gave a viability, T/C [28] of 21%, a viability, T/C [29] of 20.9% and a viability, T/C [30] of 35%. For the same molecule, the viability, T/C [31] was 6.05%, the viability, T/C [32] was 6.58% and the viability, T/C [33] was 5.84%. It also gave a viability, T/C [34] of 9.25%, a viability, T/C [35] of 11.6% and a viability, T/C [36] of 19.2%.

Source: PubChem BioAssay AID1963959 (Molecular Pharmacology Branch, DTP, NCI, 2024)
